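Results reflect a 48-hour exposure of cells in 96-well plates to compound at five concentrations. At the GI50, growth is halved.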 Activity calls are given as the source filed them. Cut-off read from the data, not from the text of the source: active = GI50 up to about 1.1 µM and inactive = higher.
Tests used:
Assay in all cases: NCI tumour cell line growth inhibition, 48 h
SW-620 = tested on: SW-620
KM12 = tested on: KM12
PC-3 = tested on: PC-3
OVCAR-8 = tested on: OVCAR-8
Malme-3M = tested on: Malme-3M
ACHN = tested on: ACHN
OVCAR-3 = tested on: OVCAR-3
SF-268 = tested on: SF-268
SNB-75 = tested on: SNB-75
DU-145 = tested on: DU-145
SR = tested on: SR
HOP-62 = tested on: HOP-62
OVCAR-4 = tested on: OVCAR-4
EKVX = tested on: EKVX
SNB-19 = tested on: SNB-19
MDA-MB-435 = tested on: MDA-MB-435
HL-60 = tested on: HL-60
HOP-92 = tested on: HOP-92
MDA-N = tested on: MDA-N
A498 = tested on: A498

Row | SMILES | GI50 (SW-620) | GI50 (KM12) | GI50 (PC-3) | GI50 (OVCAR-8) | GI50 (Malme-3M) | GI50 (ACHN) | GI50 (OVCAR-3) | GI50 (SF-268) | GI50 (SNB-75) | GI50 (DU-145) | GI50 (SR) | GI50 (HOP-62) | GI50 (OVCAR-4) | GI50 (EKVX) | GI50 (SNB-19) | GI50 (MDA-MB-435) | GI50 (HL-60) | GI50 (HOP-92) | GI50 (MDA-N) | GI50 (A498)
1 | CN(C)CCCNc1c2c(=O)n(C)c(=O)nc-2n(C)c2ccccc12 | 3.7 µM (inactive) | 3.58 µM (inactive) | 4.08 µM (inactive) | 4.83 µM (inactive) | 3.11 µM (inactive) | 5.45 µM (inactive) | 1.25 µM (inactive) | 5.38 µM (inactive) | 5.15 µM (inactive) | 6.41 µM (inactive) | 3 µM (inactive) | 3.75 µM (inactive) | 4.72 µM (inactive) | 6.43 µM (inactive) | 6.56 µM (inactive) | 3.94 µM (inactive) | 0.966 µM (active) | 17 µM (inactive) | 4.2 µM (inactive) | 9.27 µM (inactive)
2 | CCOC(=O)C(O)(C(=O)OCC)c1cc(C(C)(C)C)c(O)c(C(C)(C)C)c1 | 37 µM (inactive) | 34.8 µM (inactive) | 33.7 µM (inactive) | 15.5 µM (inactive) | 42.2 µM (inactive) | 41.3 µM (inactive) | 76.6 µM (inactive) | 40.7 µM (inactive) | 27.4 µM (inactive) | 92 µM (inactive) | 33.6 µM (inactive) | > 100 µM (inactive) | > 100 µM (inactive) | 48.4 µM (inactive) | 26 µM (inactive) | 37.2 µM (inactive) | 25.5 µM (inactive) | 26.9 µM (inactive) | 36.4 µM (inactive) | 50.8 µM (inactive)
3 | N=C(N)NCCCCCCC(=O)NC(O)C(=O)NCCCCNCCCN (stereo not given) | > 750 µM (inactive) | 577 µM (inactive) | > 750 µM (inactive) | 641 µM (inactive) | 582 µM (inactive) | > 750 µM (inactive) | 474 µM (inactive) | > 750 µM (inactive) | 335 µM (inactive) | > 750 µM (inactive) | 1280 µM (inactive) | 726 µM (inactive) | 550 µM (inactive) | 643 µM (inactive) | 695 µM (inactive) | > 750 µM (inactive) | > 750 µM (inactive) | 360 µM (inactive) | 2360 µM (inactive) | > 750 µM (inactive)
4 | COC(=O)C1Cc2c(C)cccc2C1=O (stereo not given) | > 100 µM (inactive) | > 100 µM (inactive) | > 100 µM (inactive) | > 100 µM (inactive) | > 100 µM (inactive) | > 100 µM (inactive) | > 100 µM (inactive) | > 100 µM (inactive) | > 100 µM (inactive) | > 100 µM (inactive) | 50.8 µM (inactive) | > 100 µM (inactive) | > 100 µM (inactive) | > 100 µM (inactive) | > 100 µM (inactive) | > 100 µM (inactive) | 29.4 µM (inactive) | > 100 µM (inactive) | > 100 µM (inactive) | > 100 µM (inactive)
5 | C[C@@]12[C@H]3CC[C@@H]1[C@H](O)C(=O)N2CC3 | > 100 µM (inactive) | > 100 µM (inactive) | > 100 µM (inactive) | > 100 µM (inactive) | > 100 µM (inactive) | > 100 µM (inactive) | > 100 µM (inactive) | > 100 µM (inactive) | > 100 µM (inactive) | > 100 µM (inactive) | > 100 µM (inactive) | > 100 µM (inactive) | > 100 µM (inactive) | > 100 µM (inactive) | > 100 µM (inactive) | > 100 µM (inactive) | > 100 µM (inactive) | > 100 µM (inactive) | > 100 µM (inactive) | > 100 µM (inactive)
6 | O=c1[nH]nc(Cc2ccc(Cl)cc2)n1/N=C/c1ccc([N+](=O)[O-])o1 | 2.92 µM (inactive) | 2.03 µM (inactive) | 3.08 µM (inactive) | 1.99 µM (inactive) | 1.46 µM (inactive) | 2.12 µM (inactive) | 0.53 µM (active) | 2.25 µM (inactive) | 7.13 µM (inactive) | 3.64 µM (inactive) | 2.17 µM (inactive) | 2.77 µM (inactive) | 2.73 µM (inactive) | 4.63 µM (inactive) | 3.98 µM (inactive) | 2.4 µM (inactive) | 1.87 µM (inactive) | 4.57 µM (inactive) | 1.65 µM (inactive) | 5.7 µM (inactive)
7 | CC(=O)n1cc(C2CC23N=C(c2ccccc2)OC3=O)c2ccccc21 (stereo not given) | 19.8 µM (inactive) | 20.2 µM (inactive) | 17.8 µM (inactive) | 16.6 µM (inactive) | 20.6 µM (inactive) | 17.7 µM (inactive) | 18 µM (inactive) | 18.3 µM (inactive) | 19 µM (inactive) | 16 µM (inactive) | 10.6 µM (inactive) | 21.4 µM (inactive) | 16.3 µM (inactive) | 21.8 µM (inactive) | 31.3 µM (inactive) | 21.1 µM (inactive) | 2.04 µM (inactive) | 22.1 µM (inactive) | 23.9 µM (inactive) | 22.6 µM (inactive)
8 | CCCCCCCCCCCCCCCC(=O)Nc1ccn(C2OC(CO)C(O)C2O)c(=O)n1 (stereo not given) | > 90.4 µM (inactive) | 29.4 µM (inactive) | 3.78 µM (inactive) | 6.55 µM (inactive) | 4.22 µM (inactive) | 3.08 µM (inactive) | 34.2 µM (inactive) | 15.2 µM (inactive) | 30.5 µM (inactive) | 3.38 µM (inactive) | 0.6 µM (active) | 0.887 µM (active) | > 100 µM (inactive) | > 100 µM (inactive) | 15.2 µM (inactive) | 27.6 µM (inactive) | 2.77 µM (inactive) | 16.6 µM (inactive) | 30.3 µM (inactive) | 22.1 µM (inactive)
9 | COc1cccc(CCNc2c(C#N)c3n(c4ccccc4[n+]3C)c3ncccc23)c1 | 2.47 µM (inactive) | 2 µM (inactive) | 14.4 µM (inactive) | 1.7 µM (inactive) | 17.5 µM (inactive) | 16.7 µM (inactive) | 19.6 µM (inactive) | 16.4 µM (inactive) | 5.96 µM (inactive) | 5.42 µM (inactive) | > 100 µM (inactive) | 17.5 µM (inactive) | 2.04 µM (inactive) | 17.3 µM (inactive) | 5.9 µM (inactive) | 2.52 µM (inactive) | 1.79 µM (inactive) | 27.7 µM (inactive) | 5.2 µM (inactive) | 20.9 µM (inactive)
10 | CC12CC(Br)(Br)C(=O)C3C1CCCC32 | 2.25 µM (inactive) | 13 µM (inactive) | 12.2 µM (inactive) | 4.07 µM (inactive) | 4.06 µM (inactive) | 5.27 µM (inactive) | 3.15 µM (inactive) | 10.2 µM (inactive) | 8.2 µM (inactive) | 12.4 µM (inactive) | 4.43 µM (inactive) | 17.5 µM (inactive) | 4.48 µM (inactive) | 7.1 µM (inactive) | 14.2 µM (inactive) | 3.03 µM (inactive) | 0.767 µM (active) | 2.17 µM (inactive) | 2.99 µM (inactive) | 16.8 µM (inactive)
